Converted amounts (≈) assume the structure as drawn.
What was measured:
Assay type in all cases: functional
Candida albicans = assay: Antifungal activity against Candida albicans assessed as growth inhibition by serial dilution method
Rhizopus = assay: Antifungal activity against Rhizopus sp. assessed as growth inhibition by serial dilution method
[1] = tested on: Mycobacterium tuberculosis; assay: Antimycobacterial activity against Mycobacterium tuberculosis H37Rv assessed as growth inhibition at 1 to 100 ug/mL by resazurin assay; settings: for MIC: Mycobacterium tuberculosis, H37Rv
Staphylococcus aureus [2] = assay: Antibacterial activity against Staphylococcus aureus assessed as growth inhibition by serial dilution method
Escherichia coli = assay: Antibacterial activity against Escherichia coli assessed as growth inhibition by serial dilution method
Klebsiella pneumoniae [3] = assay: Antibacterial activity against Klebsiella pneumoniae assessed as growth inhibition by serial dilution method
Aspergillus flavus = assay: Antifungal activity against Aspergillus flavus assessed as growth inhibition by serial dilution method
[4] = tested on: Mycolicibacterium smegmatis; assay: Antimycobacterial activity against Mycobacterium smegmatis ATCC 19420 assessed as growth inhibition at 1 to 100 ug/mL by resazurin assay
[5] = tested on: Mycolicibacterium fortuitum; assay: Antimycobacterial activity against Mycobacterium fortuitum ATCC 19542 assessed as growth inhibition at 1 to 100 ug/mL by resazurin assay
[6] = tested on: Mycobacterium tuberculosis; assay: Antimycobacterial activity against Mycobacterium tuberculosis H37Rv assessed as growth inhibition at 0.3125 to 5 ug/mL by resazurin assay
[7] = tested on: Mycolicibacterium smegmatis; assay: Antimycobacterial activity against Mycobacterium smegmatis ATCC 19420 assessed as growth inhibition at 0.3125 to 5 ug/mL by resazurin assay
[8] = tested on: Mycolicibacterium fortuitum; assay: Antimycobacterial activity against Mycobacterium fortuitum ATCC 19542 assessed as growth inhibition at 0.3125 to 5 ug/mL by resazurin assay
Klebsiella pneumoniae [9] = assay: Potency index, ratio of ciprofloxacin MIC to compound MIC for Klebsiella pneumoniae
Staphylococcus aureus [10] = assay: Potency index, ratio of ciprofloxacin MIC to compound MIC for Staphylococcus aureus

Compound | MIC (Candida albicans) | MIC (Rhizopus) | growth inhibition (GI) [1] | MIC [1] | MIC (Staphylococcus aureus [2]) | MIC (Escherichia coli) | MIC (Klebsiella pneumoniae [3]) | MIC (Aspergillus flavus) | MIC [4] | MIC [5] | MIC [6] | MIC [7] | MIC [8] | PI (Klebsiella pneumoniae [9]) | PI (Staphylococcus aureus [10])
O=[N+]([O-])c1ccc(OCc2nc3ccc(Br)cc3n2S(=O)(=O)c2ccccc2Cl)cc1 | 128 µg/mL (≈ 245 µM) | > 256 µg/mL | 0% | > 100 µg/mL | 128 µg/mL (≈ 245 µM) | > 256 µg/mL | 256 µg/mL (≈ 490 µM) | > 256 µg/mL | > 100 µg/mL | > 100 µg/mL |  |  |  |  | 
COc1ccc(S(=O)(=O)n2c(COc3ccc([N+](=O)[O-])cc3)nc3ccc(Br)cc32)c(OC)c1 | > 256 µg/mL | 128 µg/mL (≈ 233 µM) | <90% | 10 µg/mL (≈ 18.2 µM) | > 256 µg/mL | 256 µg/mL (≈ 467 µM) | 128 µg/mL (≈ 233 µM) | 256 µg/mL (≈ 467 µM) | 10 µg/mL (≈ 18.2 µM) | > 100 µg/mL | 2.5 µg/mL (≈ 4.56 µM) | 2.5 µg/mL (≈ 4.56 µM) |  |  | 
Cc1cccc(S(=O)(=O)n2c(COc3ccc([N+](=O)[O-])cc3)nc3ccc(Br)cc32)c1 | 256 µg/mL (≈ 510 µM) | > 256 µg/mL | <90% | > 100 µg/mL | > 256 µg/mL | 128 µg/mL (≈ 255 µM) | > 256 µg/mL | > 256 µg/mL | 10 µg/mL (≈ 19.9 µM) | > 100 µg/mL | 5 µg/mL (≈ 9.95 µM) |  |  |  | 
Nc1ccc(OCc2nc3cc(Br)ccc3[nH]2)cc1 | 64 µg/mL (≈ 201 µM) | 256 µg/mL (≈ 805 µM) | <90% | 10 µg/mL (≈ 31.4 µM) | 64 µg/mL (≈ 201 µM) | 128 µg/mL (≈ 402 µM) | 128 µg/mL (≈ 402 µM) | 128 µg/mL (≈ 402 µM) | 10 µg/mL (≈ 31.4 µM) | > 100 µg/mL | 5 µg/mL (≈ 15.7 µM) | 10 µg/mL (≈ 31.4 µM) |  |  | 
COc1ccc(OC)c(S(=O)(=O)n2c(COc3ccc([N+](=O)[O-])cc3)nc3cc(Br)ccc32)c1 | 128 µg/mL (≈ 233 µM) | 256 µg/mL (≈ 467 µM) | 90% | 1 µg/mL (≈ 1.82 µM) | 128 µg/mL (≈ 233 µM) | 128 µg/mL (≈ 233 µM) | 256 µg/mL (≈ 467 µM) | 64 µg/mL (≈ 117 µM) | 1 µg/mL (≈ 1.82 µM) | 10 µg/mL (≈ 18.2 µM) | 1.25 µg/mL (≈ 2.28 µM) | 1.25 µg/mL (≈ 2.28 µM) | 1.25 µg/mL (≈ 2.28 µM) |  | 
O=[N+]([O-])c1ccc(OCc2nc3cc(Br)ccc3n2S(=O)(=O)c2ccc(Cl)cc2Cl)cc1 | 128 µg/mL (≈ 230 µM) | 128 µg/mL (≈ 230 µM) | <90% | > 100 µg/mL | 8 µg/mL (≈ 14.4 µM) | 4 µg/mL (≈ 7.18 µM) | 64 µg/mL (≈ 115 µM) | 64 µg/mL (≈ 115 µM) | 10 µg/mL (≈ 17.9 µM) | > 100 µg/mL | 5 µg/mL (≈ 8.97 µM) |  |  |  | 
O=[N+]([O-])c1ccc(OCc2nc3cc(Br)ccc3n2S(=O)(=O)c2cc(Cl)ccc2Cl)cc1 | 64 µg/mL (≈ 115 µM) | 16 µg/mL (≈ 28.7 µM) | 90% | > 100 µg/mL | 8 µg/mL (≈ 14.4 µM) | 4 µg/mL (≈ 7.18 µM) | 8 µg/mL (≈ 14.4 µM) | 32 µg/mL (≈ 57.4 µM) | 10 µg/mL (≈ 17.9 µM) | 10 µg/mL (≈ 17.9 µM) | 1.25 µg/mL (≈ 2.24 µM) |  | 10 µg/mL (≈ 17.9 µM) | 1 | 
O=[N+]([O-])c1ccc(OCc2nc3cc(Br)ccc3n2S(=O)(=O)c2ccccc2[N+](=O)[O-])cc1 | 16 µg/mL (≈ 30 µM) | 16 µg/mL (≈ 30 µM) | 95% | 1 µg/mL (≈ 1.88 µM) | 4 µg/mL (≈ 7.5 µM) | 32 µg/mL (≈ 60 µM) | 4 µg/mL (≈ 7.5 µM) | 8 µg/mL (≈ 15 µM) | 1 µg/mL (≈ 1.88 µM) | 10 µg/mL (≈ 18.8 µM) | 0.625 µg/mL (≈ 1.17 µM) | 1.25 µg/mL (≈ 2.34 µM) | 10 µg/mL (≈ 18.8 µM) | 2 | 1
C[C@@H]1[C@H](O)[C@@H](C)/C=C/C=C/C=C/C=C/C=C/C=C/C=C/[C@H](O[C@@H]2O[C@H](C)[C@@H](O)[C@H](N)[C@@H]2O)C[C@@H]2O[C@](O)(C[C@@H](O)C[C@@H](O)[C@H](O)CC[C@@H](O)C[C@@H](O)CC(=O)O[C@H]1C)C[C@H](O)[C@H]2C(=O)O [AMPHOTERICIN B] | 8 µg/mL (≈ 8.66 µM) | 16 µg/mL (≈ 17.3 µM) |  |  |  |  |  | 8 µg/mL (≈ 8.66 µM) |  |  |  |  |  |  | 
O=C(O)c1cn(C2CC2)c2cc(N3CCNCC3)c(F)cc2c1=O [CIPROFLOXACIN] |  |  |  |  | 8 µg/mL (≈ 24.1 µM) |  | 16 µg/mL (≈ 48.3 µM) |  |  |  |  |  |  |  | 
NNC(=O)c1ccncc1 [ISONIAZID] |  |  | 95% | 0.7 µg/mL (≈ 5.1 µM) |  |  |  |  | 50 µg/mL (≈ 365 µM) | 12.5 µg/mL (≈ 91.1 µM) | 0.7 µg/mL (≈ 5.1 µM) | 50 µg/mL (≈ 365 µM) | 12.5 µg/mL (≈ 91.1 µM) |  | 
CO[C@H]1/C=C/O[C@@]2(C)Oc3c(C)c(O)c4c(O)c(c(/C=N/N5CCN(C)CC5)c(O)c4c3C2=O)NC(=O)/C(C)=C\C=C\[C@H](C)[C@H](O)[C@@H](C)[C@@H](O)[C@@H](C)[C@H](OC(C)=O)[C@@H]1C [RIFAMPIN] |  |  | 95% | 0.5 µg/mL (≈ 0.608 µM) |  |  |  |  | 1.5 µg/mL (≈ 1.82 µM) | 1.5 µg/mL (≈ 1.82 µM) | 0.5 µg/mL (≈ 0.608 µM) | 1.5 µg/mL (≈ 1.82 µM) | 1.5 µg/mL (≈ 1.82 µM) |  | 
